Test results reported in article PMC5461640 (Pharmacology Research & Perspectives, 2017).
Where two headings read alike, the source gives them in different places. Marks after values point to notes of the source that are not given here.

What was measured:
human OT receptors = biological target: T1, human OT receptors (Homo sapiens, UniProt P30559); assay type: cell-based
T1 construct: expressed in transfected cells; host or cells: HEK-293 cells (stably transformed, G418 selection)
T1 sequence (P30559 1-389): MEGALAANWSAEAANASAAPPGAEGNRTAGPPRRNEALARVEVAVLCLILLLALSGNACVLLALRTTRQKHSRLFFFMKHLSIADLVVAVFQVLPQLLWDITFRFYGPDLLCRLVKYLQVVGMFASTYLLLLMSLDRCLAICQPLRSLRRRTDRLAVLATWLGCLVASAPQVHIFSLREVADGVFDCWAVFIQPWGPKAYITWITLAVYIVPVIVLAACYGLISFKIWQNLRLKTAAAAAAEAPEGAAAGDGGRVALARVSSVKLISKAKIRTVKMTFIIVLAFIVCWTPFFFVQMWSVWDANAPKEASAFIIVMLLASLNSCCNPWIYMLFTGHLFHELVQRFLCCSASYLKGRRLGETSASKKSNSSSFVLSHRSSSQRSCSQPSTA
Experimental: Plasmid constructs were described previously (Amina et al. 2010). Human embryonic kidney HEK‐293 cells were maintained in Dulbecco's Modified Eagle's Medium (DMEM) supplemented with 10% fetal bovine serum (FBS) and Geneticin G418 100 μg/mL at 37°C in a humidified atmosphere of 95% air and 5% CO2. Cells were grown in culture dishes to 80–90% confluence and transfected with the expression plasmid pcDNAHOXTR‐376R or pcDNA3(+) (Invitrogen, Carlsbad, CA) (MOCK‐transfected cells), using FuGENE HD Transfection Reagent (Roche, Basel, Switzerland) in accordance with the manufacturer's instructions.
We measured [Ca^2+]i using the fluorescent Ca^2+ indicator fura‐2‐acetoxymethyl ester (fura‐2/AM). Transfected HEK‐293 cells were loaded with fura‐2/AM to a final concentration of 1 μmol/L in complete medium and incubated at 37°C as reported previously (Ma et al. 2013). After 30‐min loading, the cells were washed three times with HEPES‐buffered saline (HBS) solution (145 mmol/L NaCl, 5 mmol/L KCl, 1 mmol/L MgCl2, 20 mmol/L HEPES‐NaOH, 2 mmol/L CaCl2, 20 mmol/L glucose, pH 7.4). The fluorescence of the cells loaded with fura‐2/AM was then measured at 37°C, at the determined sites, through a pinhole (10–20 μm in diameter). We used alternating excitation wavelengths of 340 and 380 nm in a Ca^2+ microspectrofluorometric system (IX‐73 Model; Olympus, Tokyo, Japan) and Metafluor software (Molecular Devices, Sunnyvale, CA), as described previously (Hashii et al. 2000). […] The ratio of fluorescence at 340 nm and 380 nm (F340/F380) was used to determine [Ca^2+]i. All data were normalized to the baseline fluorescence (F0) recorded 10 s before addition, and given as F/F0 where F – maximal ratio of fluorescence after drug's application.

[1] = male, ICR, mouse, in vivo, ip, 100 ng/kg
Experimental: Thirty minutes or 24 h later, mice were anesthetized by an intraperitoneal injection of pentobarbital. Blood samples of 0.1 mL were collected by cardiac puncture in EDTA and aprotinin‐coated capillaries and centrifuged at 1600g for 15 min at 4°C. Plasma samples were collected and stored at –80°C until use.
(§1) Protein content was determined using a Bio‐Rad protein assay kit and bovine serum albumin assay standard (Bio‐Rad, Hercules, CA).

[2] = male, ICR, mouse, in vivo, ip, 100 ng/kg, 0.5 h
Experimental: Mouse CSF was obtained according the techniques described by Jin et al. (2007). […] Thirty minutes or 24 h later, the mice were anaesthetized with intraperitoneal injection of pentobarbital. The skin over the posterior neck was removed by two incisions, the first in the midline from the low cervical area to the anterior cranium and the second across the craniocervical junction. Subcutaneous tissue and nuchal muscles were exposed, sectioned along the rim of the occipital bone and then removed laterally unveiling the glistening clear arachnoid membrane overlying the cisterna magna. A micropipette was guided into the cisterna magna.
The micropipette was constructed by cutting a 30‐gauge needle with scissors to approximately 6–7 mm. The needle was then inserted 4–5 mm into the lumen of a 10 μL micropipette. CSF samples were obtained between 8.00 and 11.00 AM, and usually 5 μL of clear CSF was obtained.
as §1

[3] = drug responses at 10^−8 mol/L relative to OT as 100%, HEK‐293 cells expressing pcDNAHOXTR‐376R, mean ± SEM, n = 25

Row | Percentage of maximum Ca^2+ mobilization (human OT receptors; 10.0) | Structure (SMILES) | Percentage of maximum Ca^2+ mobilization (human OT receptors; [3]) | plasma level of OT ([1]; 0.5 h) [pg/mL] | plasma level of OT ([1]; 24 h) [pg/mL] | level of OT in the CSF [2] [pg/mL]
1 | 13.1 ± 1.8 ^a ^, ^c % | CCCCCCCCCCCCCCCC(=O)Oc1ccc(C[C@@H]2NC(=O)[C@@H](N)CSSC[C@@H](C(=O)N3CCC[C@H]3C(=O)N[C@@H](CC(C)C)C(=O)NCC(N)=O)NC(=O)[C@H](CC(N)=O)NC(=O)[C@H](CCC(N)=O)NC(=O)[C@H]([C@@H](C)CC)NC2=O)cc1 [LOT‐3, lipo‐oxytocin‐3] | – | – | – | –
2 | 45.5 ± 0.83 ^a ^, ^b % | CCCCCCCCCCCCCCCC(=O)N[C@H]1CSSC[C@@H](C(=O)N2CCC[C@H]2C(=O)N[C@@H](CC(C)C)C(=O)NCC(N)=O)NC(=O)[C@H](CC(N)=O)NC(=O)[C@H](CCC(N)=O)NC(=O)[C@H]([C@@H](C)CC)NC(=O)[C@H](Cc2ccc(O)cc2)NC1=O [LOT‐2, lipo‐oxytocin‐2] | – | – | – | –
3 | – | CCCCCCCCCCCCCCCC(=O)N[C@H]1CSSC[C@@H](C(=O)N2CCC[C@H]2C(=O)N[C@@H](CC(C)C)C(=O)NCC(N)=O)NC(=O)[C@H](CC(N)=O)NC(=O)[C@H](CCC(N)=O)NC(=O)[C@H]([C@@H](C)CC)NC(=O)[C@H](Cc2ccc(OC(=O)CCCCCCCCCCCCCCC)cc2)NC1=O [LOT‐1, lipo‐oxytocin‐1] | 12.6 ± 1.8 ^a ^, ^c % | – | – | –
4 | – | CC[C@H](C)[C@@H]1NC(=O)[C@H](Cc2ccc(O)cc2)NC(=O)[C@@H](N)CSSC[C@@H](C(=O)N2CCC[C@H]2C(=O)N[C@@H](CC(C)C)C(=O)NCC(N)=O)NC(=O)[C@H](CC(N)=O)NC(=O)[C@H](CCC(N)=O)NC1=O [OT, Oxytocin] | 100% | 695 ± 52 | 547 ± 39 | 347 ± 38
